Drawing on patent US11780845B2 (Relay Therapeutics, Inc., priority 2019, dated 2023), this text covers IC50 for 57 compounds.

In one test the target is FGFR2 (Homo sapiens (Human), UniProt P21802). Kind of test: Biochemical FGFR2 Caliper assay.
Chain of FGFR2 (P21802 22-821): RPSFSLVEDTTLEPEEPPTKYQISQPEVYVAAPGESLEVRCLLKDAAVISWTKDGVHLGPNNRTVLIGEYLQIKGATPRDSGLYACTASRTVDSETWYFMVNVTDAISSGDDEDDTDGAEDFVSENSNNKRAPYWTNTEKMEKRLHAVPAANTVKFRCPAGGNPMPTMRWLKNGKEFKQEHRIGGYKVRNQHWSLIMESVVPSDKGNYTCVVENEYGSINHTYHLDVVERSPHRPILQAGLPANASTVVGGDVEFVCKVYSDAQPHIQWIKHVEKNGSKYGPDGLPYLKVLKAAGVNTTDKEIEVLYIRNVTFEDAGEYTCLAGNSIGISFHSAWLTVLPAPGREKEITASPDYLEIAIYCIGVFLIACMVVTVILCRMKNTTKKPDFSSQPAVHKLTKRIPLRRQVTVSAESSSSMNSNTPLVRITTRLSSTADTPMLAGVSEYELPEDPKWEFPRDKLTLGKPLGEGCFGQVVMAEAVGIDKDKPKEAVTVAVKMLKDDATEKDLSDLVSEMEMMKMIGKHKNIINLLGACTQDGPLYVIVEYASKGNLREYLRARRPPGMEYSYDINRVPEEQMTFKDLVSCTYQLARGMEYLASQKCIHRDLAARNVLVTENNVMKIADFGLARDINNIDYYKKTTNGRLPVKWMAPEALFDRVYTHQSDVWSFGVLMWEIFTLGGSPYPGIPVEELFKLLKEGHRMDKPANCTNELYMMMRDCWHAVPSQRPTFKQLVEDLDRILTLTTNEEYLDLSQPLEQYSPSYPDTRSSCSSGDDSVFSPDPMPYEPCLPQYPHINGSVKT
Settings: not given
Compound `C=CC(=O)N1CCC(c2c(-c3ccc(N4CCN(C)C4=O)cc3)c3c(N)ncnc3n2C)C1` (centres unmarked) [Example 805] yielded an IC50 of 1000 to 100000 nM.
The compound `C=C(C)C(=O)Nc1ccc(-c2c(-c3ccc(Oc4cccc(C)n4)cc3)c3c(N)ncnn3c2CN(C)C)cc1` [Example 856] yielded an IC50 of 250 to 1000 nM.
As for `C=CC(=O)Nc1ccc(-c2c(C3=CC[C@@H](C(=O)N4CCCC4)CC3)c3c(N)ncnc3n2C)cc1` (single isomer, unassigned) [Example 962], the IC50 is less than 100 nM.
In turn, `C=C(C)C(=O)Nc1ccc(-c2c(C3=CC[C@@H](C(=O)N4CCCC4)CC3)c3c(N)ncnc3n2C)c(Cl)c1` [Example 1016] showed a 50% inhibitory concentration (IC50) of 1000 to 100000 nM.
Still for that read-out and setting: under `C=C(C)C(=O)Nc1ccc(-c2cn3ncnc(N)c3c2-c2ccc(C(=O)N3CCCC3)cc2)cc1` [Example 825] stands 100 to 250 nM.
Still for that read-out and setting: the same measure for `C#Cc1ccc(-c2c(-c3ccccc3)c3c(N)ncnc3n2C)cn1` [Example 1192]: less than 100 nM; for `C#Cc1cnc(-c2c(-c3ccc(Oc4nccc(C)n4)cc3)c3c(N)ncnc3n2C)c(C)n1` [Example 1176]: 1000 to 100000 nM; for `C#Cc1ncc(-c2c(-c3ccc(Oc4nccc(C)n4)cc3)c3c(N)ncnc3n2C)cc1OC` [Example 1178]: 1000 to 100000 nM.
Still for that read-out and setting: under `C=CC(=O)Nc1ccc(-c2[nH]c3ncnc(C)c3c2-c2cc3ccccc3s2)cc1` [Example 1256] stands 1000 to 100000 nM.
Consider `C=C(C)C(=O)Nc1ccc(-c2c(-c3ccc(-c4noc(C5CC5)n4)c([N+](=O)[O-])c3)c3c(N)ncnc3n2C)cc1` [Example 1317], for which the IC50 lay within 1000 to 100000 nM.
`C#Cc1cc(C)c(-c2c(-c3ccc(OC(F)(F)F)cc3)c3c(N)ncnc3n2C)cn1` [Example 1129] returned an IC50 of less than 100 nM.
Same read-out and setting: under `C=C(C)C(=O)Nc1ccc(-c2c(C3=CCC(c4nc(C)no4)CC3)c3c(N)ncnc3n2C)cc1` (centres unmarked) [Example 1222] stands 1000 to 100000 nM.
Still for that read-out and setting: under `C#Cc1ncc(-c2c(-c3ccc(Oc4nccc(C)n4)cc3)c3c(C)ncnc3n2C)c(C)n1` [Example 1100] stands 100 to 250 nM; under `C=C(C)C(=O)Nc1ccc(-c2c(C3=CCC(c4ccccc4)CC3)c3c(N)ncnc3n2C)cc1` (centres unmarked) [Example 1227], 1000 to 100000 nM.
Still for that read-out and setting: the same measure for `C=CC(=O)Nc1ccc(-c2c(-c3ccc(Oc4ccccc4)cc3)c3c(C)ncnc3n2C(C)C)cc1` [Example 1218]: 1000 to 100000 nM; for `C=CC(=O)Nc1ccc(-c2c(C3=CC[C@H](C(=O)N4CCCC4)CC3)c3c(N)ncnc3n2C)c(C)c1` (single isomer, unassigned) [Example 1101]: less than 100 nM; for `C=C(C)C(=O)Nc1ccc(-c2c(-c3ccc(-c4noc(C5CC5)n4)c(N)c3)c3c(N)ncnc3n2C)cc1` [Example 1318]: 1000 to 100000 nM.
Compound `Cn1c(-c2ccc(C#N)cc2)c(-c2ccccc2)c2c(N)ncnc21` [Example 1173] had an IC50 of 1000 to 100000 nM.
Still for that read-out and setting: the same measure for `C=C(C)C(=O)Nc1ccc(-c2c(-c3cc(-c4ccccc4)cs3)c3c(N)ncnc3n2C)cc1` [Example 1221]: 250 to 1000 nM; for `C=Cc1cc(-c2c(-c3ccccc3)c3c(N)ncnc3n2C)ccn1` [Example 1195]: 100 to 250 nM; for `C=C(C)C(=O)Nc1ccc(-c2c(-c3ccc(-c4coc(C)n4)cc3)c3c(N)ncnc3n2C)cc1` [Example 1224]: 250 to 1000 nM.
`CN(C)C/C=C/C(=O)Nc1cccc(-c2c(-c3ccc(C(=O)N4CCCC4)cc3)c3c(N)ncnc3n2C)c1` [Example 1099] showed an IC50 of less than 100 nM.
Same read-out and setting: the same measure for `C=C(C)C(=O)Nc1ccc(-c2c(C3=CCN(C(=O)OCc4ccccc4)CC3)c3c(N)ncnc3n2C)cc1` [Example 1190]: 1000 to 100000 nM; for `C#Cc1ncc(-c2[nH]c3ncnc(N)c3c2-c2ccc(Oc3nccc(C)n3)cc2)c(C)n1` [Example 1159]: 250 to 1000 nM.
The same measure, in the same setting: the same measure for `C=C(C)C(=O)Nc1ccc(-c2c(-c3ccc(-c4ccn[nH]4)cc3)c3c(N)ncnc3n2C)cc1` [Example 1156]: 1000 to 100000 nM; for `C=C(C)C(=O)Nc1ccc(-c2c(C3=CCN(c4ccccc4)CC3)c3c(N)ncnc3n2C)cc1` [Example 1216]: 1000 to 100000 nM; for `C=CC(=O)Nc1ccc(-c2c(-c3ccccc3)c3c(C)ncnc3n2C)cc1` [Example 1248]: 1000 to 100000 nM.
The same measure, in the same setting: the same measure for `[2H]C#Cc1cc2c(cn1)-c1c(-c3ccc(Oc4nccc(C)n4)c(F)c3)c3c(N)ncnc3n1CCC2` [Example 1449]: less than 100 nM; for `C=C(C)C(=O)Nc1ccc(-c2c(-c3ccc(-c4noc(C5CC5)n4)cc3)c3c(N)ncnc3n2C)cc1` [Example 1333]: 250 to 1000 nM.

Another test deals with SNU-16. In words: Cell SNU-16 assay. Format: cell-based. The settings on record: Homo sapiens, SNU-16, SNU-16 cells.
`C=CC(=O)N1CCC(c2c(-c3ccc(N4CCN(C)C4=O)cc3)c3c(N)ncnc3n2C)C1` (centres unmarked) [Example 805] came in with an IC50 of 250 to 1000 nM.
On the same count and under the same terms, under `C=C(C)C(=O)Nc1ccc(-c2c(-c3ccc(Oc4cccc(C)n4)cc3)c3c(N)ncnn3c2CN(C)C)cc1` [Example 856] stands 250 to 1000 nM.
Same read-out and setting: under `C=CC(=O)Nc1ccc(-c2c(C3=CC[C@@H](C(=O)N4CCCC4)CC3)c3c(N)ncnc3n2C)cc1` (single isomer, unassigned) [Example 962] stands no more than 100 nM; under `C=C(C)C(=O)Nc1ccc(-c2c(C3=CC[C@@H](C(=O)N4CCCC4)CC3)c3c(N)ncnc3n2C)c(Cl)c1` [Example 1016], 1000 to 100000 nM.
On the same count and under the same terms, under `C=C(C)C(=O)Nc1ccc(-c2cn3ncnc(N)c3c2-c2ccc(C(=O)N3CCCC3)cc2)cc1` [Example 825] stands no more than 100 nM.

Staying with this test, now noted: Homo sapiens; SNU-16 cells.
Turning to `C=C(C)C(=O)Nc1ccc(-c2c(-c3ccc(Oc4nccc(C)n4)c(F)c3)c3c(N)ncnc3n2C)cc1` [Example 1028], the IC50 is no more than 100 nM.

The same test, now with this note: SNU-16 cells.
As to `C=CC(=O)Nc1ccc(-c2c(C3=CC[C@H](C(=O)N4CCCC4)CC3)c3c(N)ncnc3n2C)cc1` (single isomer, unassigned) [Example 1049], the IC50 was no more than 100 nM.
Same read-out and setting: the same measure for `C=C(C)C(=O)Nc1cc(C)c(-c2c(C3=CC[C@@H](C(=O)N4CCCC4)CC3)c3c(N)ncnc3n2C)c(C)c1` (single isomer, unassigned) [Example 1485]: 1000 to 100000 nM; for `C=C(C)C(=O)Nc1cc(C)c(-c2c(C3=CC[C@H](C(=O)N4CCCC4)CC3)c3c(N)ncnc3n2C)c(C)c1` (single isomer, unassigned) [Example 1487]: 1000 to 100000 nM.
The same measure, in the same setting: the same measure for `C#Cc1cc(C)c(-c2c(-c3ccc(Oc4nccc(C)n4)c(F)c3)c3c(C)ncnc3n2C)c(F)n1` [Example 1414]: no more than 100 nM; for `C#Cc1cc(C)c(-c2c(-c3ccc(Oc4nccc(C)n4)c(F)c3)c3c(N)ncnc3n2C)c(C)n1` (atropisomer, axis not shown) [Example 1344]: no more than 100 nM.
On the same count and under the same terms, the same measure for `C#Cc1cc(C)c(-c2c(-c3ncc(Oc4nccc(C)n4)cc3F)c3c(N)ncnc3n2C)c(C)n1` (atropisomer, axis not shown) [Example 1493]: no more than 100 nM; for `C#Cc1cc(C)c(-c2c(-c3ccc(Oc4nccc(C)n4)c(F)c3)c3c(N)ncnc3n2C)c(F)n1` (atropisomer, axis not shown) [Example 1339]: no more than 100 nM.
`C#Cc1cc(C)c(-c2c(-c3ccc(Oc4nccc(C)n4)c(F)c3)c3c(C)ncnc3n2C)c(F)n1` [Example 1415]: the concentration for half-maximal inhibition (IC50) was no more than 100 nM.
On the same count and under the same terms, the same measure for `C#Cc1cc(C)c(-c2c(C3=CC[C@H](C(=O)N4CCC[C@H]4C#N)CC3)c3c(N)ncnc3n2C)c(C)n1` (atropisomer, axis not shown) [Example 1470]: no more than 100 nM; for `C#Cc1cc(C)c(-c2c(-c3ccc(Oc4nccc(C)n4)c(F)c3)c3c(N)ncnc3n2C)c(C)n1` (atropisomer, axis not shown) [Example 1342]: no more than 100 nM; for `C=CC(=O)Nc1ccc(-c2c(C3=CC[C@@H](C(=O)N4CCCC4)CC3)c3c(N)ncnc3n2C)cc1` (single isomer, unassigned) [Example 1051]: no more than 100 nM.
On the same count and under the same terms, under `C#Cc1ccc(-c2c(-c3ccc(Oc4nccc(C)n4)c(F)c3)c3c(N)ncnc3n2C(C)C)c(C)n1` (atropisomer, axis not shown) [Example 1259] stands no more than 100 nM; under `C#Cc1ccc(-c2c(-c3ccc(Oc4nccc(C)n4)c(F)c3)c3c(N)ncnc3n2C(C)C)c(C)n1` (atropisomer, axis not shown) [Example 1258], no more than 100 nM; under `C#Cc1cc(C)c(-c2c(C3=CC[C@@H](C(=O)N4CCC[C@H]4C#N)CC3)c3c(N)ncnc3n2C)c(C)n1` (atropisomer, axis not shown) [Example 1472], no more than 100 nM.
Same read-out and setting: under `C#Cc1cc(C)c(-c2c(-c3ccc(Oc4nccc(C)n4)c(F)c3)c3c(C)ncnc3n2C)c(C)n1` [Example 1410] stands no more than 100 nM; under `C#Cc1cc(C)c(-c2c(-c3ccc(Oc4nccc(C)n4)c(F)c3)c3c(C)ncnc3n2C)c(C)n1` [Example 1409], no more than 100 nM; under `C#Cc1ncc(-c2c(-c3ccc(Oc4nccc(C)n4)c(F)c3)c3c(N)ncnc3n2C(C)C)c(C)c1F` (atropisomer, axis not shown) [Example 1361], no more than 100 nM.
In turn, `C#Cc1cc(C)c(-c2c(-c3ccc(Oc4nccc(C)n4)c(F)c3)c3c(N)ncnc3n2C)c(F)n1` (atropisomer, axis not shown) [Example 1340] came in with an IC50 of no more than 100 nM.
For `C#Cc1cc(C)c(-c2c(-c3ccc(Oc4nccc(C)n4)c(F)c3)c3c(N)ncnc3n2C(C)C)cn1` (atropisomer, axis not shown) [Example 1308], the IC50 is no more than 100 nM.
As to `C#Cc1cc(OC)c(-c2c(C3=CC[C@H](C(=O)N4CCC[C@H]4C#N)CC3)c3c(C)ncnc3n2C)c(C)n1` [Example 1474], the IC50 is no more than 100 nM.
The same measure, in the same setting: the same measure for `C#Cc1ncc(-c2c(C3=CC[C@H](C(=O)N4CCCC4)CC3)c3c(C)ncnc3n2C)c(C)n1` [Example 1179]: no more than 100 nM; for `C#Cc1ncc(-c2c(-c3ccc(Oc4nccc(C)n4)c(F)c3)c3c(N)ncnc3n2C(C)C)c(C)c1F` (atropisomer, axis not shown) [Example 1360]: no more than 100 nM.
On the same count and under the same terms, the same measure for `C#Cc1cc(C)c(-c2c(C3=CC[C@H](C(=O)N4CCC[C@H]4C)CC3)c3c(N)ncnc3n2C)c(F)n1` (atropisomer, axis not shown) [Example 1349]: no more than 100 nM; for `C#Cc1cc2c(cn1)-c1c(-c3ccc(Oc4nccc(C)n4)c(F)c3)c3c(N)ncnc3n1CCO2` [Example 1494]: no more than 100 nM; for `C#Cc1cc(C)c(-c2c(-c3ccc(Oc4nccc(C)n4)c(F)c3)c3c(N)ncnc3n2C(C)C)cn1` (atropisomer, axis not shown) [Example 1307]: no more than 100 nM.
Still for that read-out and setting: under `C=CC(=O)Nc1ccc(-c2c(-c3ccc(Oc4nccc(C)n4)c(F)c3)c3c(C)ncnc3n2C)c(C)c1` [Example 1127] stands no more than 100 nM.
The compound `C#Cc1cc(OC)c(-c2c(-c3ncc(Oc4nccc(C)n4)cc3F)c3c(N)ncnc3n2C)cn1` [Example 1489] showed an IC50 of no more than 100 nM.
